{
  "source": "patent US5985636A",
  "about": "“Method and compositions for inhibiting oxidation” (priority 1997, dated 1999)",
  "system": "lipid oxidation in 1-stearoyl-2-linoleoyl-sn-glycero-3-phosphocholine large unilamellar vesicles (LUVs)",
  "experiment": "Fluorescence assay for antioxidant activity (DPH-PA probe, Fe2+-induced lipid peroxidation in large unilamellar vesicles)",
  "format": "biochemical",
  "conditions": "pH 7.0; for % of inhibition (percent inhibition based upon Fe+2 oxidation): 21 min",
  "description": "The fluorescent assay is described first.\nFluorescence assay for antioxidant activity (general): The need to screen large numbers of compounds or extracts for antioxidant activity requires that a model system (or systems) be employed which reasonably well represents the structural and functional characteristics of the substrate in the food product. The test must also be sensitive, rapid, and inexpensive. […] Large unilamellar vesicles consisting of 1-stearoyl-2-linoleoly-sn-glycero-3-phosphocholine are prepared, which closely resemble the properties of biological membranes, one of the primary sites of peroxidation. A fluorescent probe, 1,6-diphenylhexatriene propionic acid, is incorporated into the membranes such that the polar head group anchors the probe near the aqueous interface, while the hydrophobic portion lies parallel to the fatty acid chains. This probe reacts with the free radicals generated during peroxidation, resulting in a decrease in fluorescence intensity with time. A peroxidation initiator (such as ferrous metal ions or the free radical generator AAPH (Azobis-[2-amidinopropane hydrochloride]) is used to start the reaction, and the kinetics of fluorescence decrease are determined in the presence or absence of the antioxidant to be tested. An assay for a compound at a given concentration presently takes only twenty-one minutes, consumes only a few micrograms of lipid, and can be readily conducted with a simple fluorometer.\nBriefly, the lipid is dissolved in chloroform, and is dried to a thin film using a rotary evaporator. The dried film is resuspended in an aqueous buffer, and is repeatedly extruded through a polycarbonate filter of 100 nm pore size using a Liposofast piposome extruder (Avestin, Inc., Ottawa, Canada). […] The fluorescent probe, diphenylhexatriene-propionic acid (DPH-PA), is incorporated into the vesicles during preparation at a mole ratio of 1:350 (probe:lipid). For the fluorescence experiments, LUVs containing DPH-PA is suspended at a final concentration of 100 μM in 100 mM NaCl, 50 mM tris-HEPES buffer at pH 7.0. The fluorescent probe is excited at 384 nm and emission is monitored at 423 nm. […] AAPH; the progress is monitored by the decrease of the fluorescence intensity of DPH-PA resulting from reaction with free radicals generated over twenty-one minutes. A plot of the decrease of fluorescence intensity as a function of time will be used to determine the kinetics of lipid oxidation.\n^1 --Fuorescent intensity at 21 minutes.\n^2 --Percent Inhibition based upon Fe^+2 oxidation.",
  "data": [
    {"smiles": "COc1ccc(O)c(C(C)(C)C)c1", "note": "[BHA]", "values": [
      {"measurement": "% of inhibition (percent inhibition based upon Fe+2 oxidation)", "setting": "2 μM", "value": 87.1, "unit": "%"},
      {"measurement": "Fl. int. at 21 min. (fluorescent intensity at 21 minutes)", "setting": "2 μM", "value": 0.82}
    ]},
    {"smiles": "Cc1c(C)c2c(c(C)c1O)CCC(C)(CCCC(C)CCCC(C)CCCC(C)C)O2", "note": "(centres unmarked) [a-Tocopherol]", "values": [
      {"measurement": "% of inhibition (percent inhibition based upon Fe+2 oxidation)", "setting": "2 μM", "value": 0.0, "unit": "%"},
      {"measurement": "Fl. int. at 21 min. (fluorescent intensity at 21 minutes)", "setting": "2 μM", "value": 0.21}
    ]},
    {"smiles": "C[C@@H]1O[C@@H](OC[C@H]2O[C@@H](Oc3cc4c(O)cc(O)cc4[o+]c3-c3ccc(O)c(O)c3)[C@H](O[C@@H]3O[C@H](CO)[C@@H](O)[C@H](O)[C@H]3O)[C@@H](O)[C@@H]2O)[C@H](O)[C@H](O)[C@H]1O", "note": "[Anthocyanin 1, Cyanidin-3-(2\"-O-β-D-glucopyranosyl-6\"-O-α-L-rhamnosyl-β-D-glucopyranoside)]", "values": [
      {"measurement": "% of inhibition (percent inhibition based upon Fe+2 oxidation)", "setting": "2 μM", "value": 38.6, "unit": "%"},
      {"measurement": "Fl. int. at 21 min. (fluorescent intensity at 21 minutes)", "setting": "2 μM", "value": 0.48}
    ]},
    {"smiles": "CC(C)(C)c1cc(O)ccc1O", "note": "[TBHQ]", "values": [
      {"measurement": "% of inhibition (percent inhibition based upon Fe+2 oxidation)", "setting": "2 μM", "value": 90.0, "unit": "%"},
      {"measurement": "Fl. int. at 21 min. (fluorescent intensity at 21 minutes)", "setting": "2 μM", "value": 0.84}
    ]},
    {"smiles": "C[C@@H]1O[C@@H](OC[C@H]2O[C@@H](Oc3cc4c(O)cc(O)cc4[o+]c3-c3ccc(O)c(O)c3)[C@H](O)[C@@H](O)[C@@H]2O)[C@H](O)[C@H](O)[C@H]1O", "note": "[Anthocyanin II, Cyanidin-3-(6\"-O-α-L-rhamnopyranosyl-β-D-glucopyranoside)]", "values": [
      {"measurement": "% of inhibition (percent inhibition based upon Fe+2 oxidation)", "setting": "concentration not given", "value": 70.0, "unit": "%"},
      {"measurement": "Fl. int. at 21 min. (fluorescent intensity at 21 minutes)", "setting": "concentration not given", "value": 0.7}
    ]},
    {"smiles": "CCCOC(=O)c1cc(O)c(O)c(O)c1", "note": "[Propyl gallate]", "values": [
      {"measurement": "% of inhibition (percent inhibition based upon Fe+2 oxidation)", "setting": "2 μM", "value": 78.6, "unit": "%"},
      {"measurement": "Fl. int. at 21 min. (fluorescent intensity at 21 minutes)", "setting": "2 μM", "value": 0.76}
    ]},
    {"smiles": "Cc1cc(C(C)(C)C)c(O)c(C(C)(C)C)c1", "note": "[BHT]", "values": [
      {"measurement": "% of inhibition (percent inhibition based upon Fe+2 oxidation)", "setting": "2 μM", "value": 94.3, "unit": "%"},
      {"measurement": "Fl. int. at 21 min. (fluorescent intensity at 21 minutes)", "setting": "2 μM", "value": 0.87}
    ]}
  ]
}
